Design in all cases: species or system Canavalia ensiformis
The nature of test [1]: Compound (at <10 e -3M) was tested for inhibition of Alpha-mannosidase (jack bean); No inhibition.
Test [2] is described as follows: Inhibitory activity against Alpha-mannosidase (Jack bean).
Test [3] is described as follows: Inhibitory activity against Alpha-mannosidase (Jack bean); No inhibition.

With `CO[C@H]1[C@@H](N)[C@@H](O)[C@@H](O)[C@H]1O`, in test [1], the IC50 result is “Not Active”.

With `CCS[C@@H]1[C@@H](N)[C@@H](O)[C@@H](O)[C@H]1O`, in test [2], half-maximal inhibition (IC50) required 5 µM. In other words, the single-digit micromolar range.

With `CO[C@@H]1[C@@H](N)[C@@H](O)[C@@H](O)[C@H]1O`, in test [2], the concentration for half-maximal inhibition (IC50) was 0.16 µM.

Consider `CO[C@@H]1[C@@H](N)[C@@H](OC)[C@@H](O)[C@H]1O`, for which, in test [3], the IC50 result is recorded as “Not Active”.

For the compound `N[C@@H]1C[C@H](O)[C@H](O)[C@@H]1O`, the IC50 in test [2] is 11 µM.

As for `N[C@H]1[C@@H](O)[C@@H](O)[C@@H](O)[C@@H]1S`, inhibition in test [2] was half-maximal at 36 µM (IC50).

In test [2], `CS[C@@H]1[C@@H](N)[C@@H](O)[C@@H](O)[C@H]1O` [MANNOSTATIN A] had an IC50 of 0.35 µM.

For the origin of these results see ChEMBL document CHEMBL1132872, “Synthesis of a potent aminocyclitol alpha-mannosidase inhibitor, 1L-(1,2,3,5/4)-5-amino-4-O-methyl-1,2,3,4-cyclopentanetetrol” (Bioorg Med Chem Lett, 2000).
